Legend:
passive Arthus reaction = assay: Effect on passive Arthus reaction in rats (hind paw swelling); assay type: in vivo, rat (Wistar strain, male); conditions: Rattus norvegicus, po, 3 h, read-out: Swelling inhibiting ratio; for inhibition in vivo at 100 mg/kg: 100 mg/kg orally, one hour before induction, hind paw volume measured three hours after induction, anti BSA rabbit serum / BSA, relative to control group
Method: Effect on passive Arthus reaction in rats
The rats which had been fasted for 18 hours were sensitized by injecting 0.3 ml of a 10% solution of an anti BSA rabbit serum (precipitation titer, 32 times) to them at the tail vein. […] On the other hand, only the vehicle was administered to the remainder of the test animals. [formula]

mice = assay: Test for acute toxicity on mice; assay type: in vivo; conditions: one week after the administration, dead/tested
Description: Test for acute toxicity on mice
Groups each consisting of 6 male mice of ddY strain weighing between 22 and 26 g were used in this experiment.
Suspensions of the test compounds and indomethacin as the control in an 0.5% aqueous solution of tragacanth were orally administered respectively to the test animals, after which the test animals had been observed for a week to find the lethality thereof.

Structure (SMILES) | inhibition in vivo at 100 mg/kg (passive Arthus reaction) [%] | Lethality (mice; 2,000 mg/kg orally) | other results
O=C(O)CCCC1Cc2ccc(F)cc2C1=O (stereo not shown) [Example 1, 6-fluoro-1-oxo-2,3-dihydro-2-indene butyric acid] | 26.7 | 1/6 | –
O=C(O)CCCC1Cc2ccc(Cl)cc2C1=O (stereo not shown) [Example 2, 6-chloro-1-oxo-2,3-dihydro-2-indene butyric acid] | 37.7 | 2/6 | –
O=C(O)CCC1Cc2ccc(Cl)cc2C1=O (stereo not shown) [Example 3, 6-chloro-1-oxo-2,3-dihydro-2-indene propionic acid] | 13.7 | – | –
O=C(O)CCC1Cc2c(F)cccc2C1=O (stereo not shown) [Example 5, 4-fluoro-1-oxo-2,3-dihydro-2-indene propionic acid] | 41.7 | 2/6 | –
O=C(O)CCC1Cc2ccc(F)cc2C1=O (stereo not shown) [Example 6, 6-fluoro-1-oxo-2,3-dihydro-2-indene propionic acid] | 39.4 | 2/6 | Lethality (mice; 500 mg/kg orally): 0/6; Lethality (mice; 1,000 mg/kg orally): 0/6
O=C(O)CCC1Cc2cc(Cl)ccc2C1=O (stereo not shown) [Example 8, 5-chloro-1-oxo-2,3-dihydro-2-indene propionic acid] | 17.5 | – | –
O=C(O)CCCC1Cc2c(Cl)cccc2C1=O (stereo not shown) [Example 11, 4-chloro-1-oxo-2,3-dihydro-2-indene butyric acid] | 13.9 | – | –
O=C(O)CCCC1Cc2c(Cl)cc(Cl)cc2C1=O (stereo not shown) [Example 13, 4,6-dichloro-1-oxo-2,3-dihydro-2-indene butyric acid] | 22.5 | 1/6 | –
O=C(O)CCCCC1Cc2c(Cl)cccc2C1=O (stereo not shown) [Example 14, 4-chloro-1-oxo-2,3-dihydro-2-indene valeric acid] | 18.6 | 0/6 | –
O=C(O)CCCCC1Cc2cc(Cl)ccc2C1=O (stereo not shown) [Example 15, 5-chloro-1-oxo-2,3-dihydro-2-indene valeric acid] | 35.3 | 0/6 | –
O=C(O)CCCCC1Cc2ccc(Cl)cc2C1=O (stereo not shown) [Example 16, 6-chloro-1-oxo-2,3-dihydro-2-indene valeric acid] | 16.2 | – | –
COc1ccc2c(c1)c(CC(=O)O)c(C)n2C(=O)c1ccc(Cl)cc1 [Indomethacin, indomethacin, reference compound] | – | – | inhibition in vivo at 5 mg/kg (passive Arthus reaction): 8.1%; Lethality (mice; 50 mg/kg orally): 6/6
